Reference: patent US20230112800A1 (priority 2021, published 2023)
Where two headings read alike, the source gives them in different places.

Legend:
[1] = rats, niclosamide dose of 10 mg/kg by oral gavage, n = 5
[2] = CD-1 mice, 500 mg/kg suspended in 0.5% Methocel A4M
SARS-CoV = conditions: Vero cells infected by SARS-CoV (2002 pandemic); cited from earlier work
COVID-19 = conditions: in-vitro isolate COVID-19, Vero E6 cells; cited from earlier work

For `O=C(Nc1ccc([N+](=O)[O-])cc1Cl)c1cc(Cl)ccc1O`, the AUCInf [1] was 188 (84) h*ng/mL, the AUC_%Extrap_obs [1] was 8.4 (7.0) % and the AUClast [1] was 168 (64) h*ng/mL. The AUClast/D [1] was 16.8 (6.4) h*mg/mL, the Cmax [1] was 48.3 (20.6) ng/mL and the MRTInf_obs [1] was 3.56 (0.70) h. The T1/2 [1] was 1.00 (0.30) h and the Tmax [1] was 3.60 (0.89) h.
Compound `O=C(Nc1ccc([N+](=O)[O-])cc1Cl)c1cc(Cl)ccc1O` [Crystalline Nic] has an AUC0-last [2] of 1454.6 ng·h/mL, a Cmax [2] of 661.7 ng/mL and a Tmax [2] of 30 min.
In the case of `CCN(CC)CCCC(C)Nc1ccnc2cc(Cl)ccc12` (stereo not shown) [chloroquine], the IC50 (SARS-CoV) is listed as 4.4 µM and the IC50 (COVID-19) is listed as 1.13 µM.
